Consider 39 compounds from patent US20260097022A1, “COMPOUNDS AND USES THEREOF” (Integrated Biosciences, Inc., priority 2023, published 2026).

This assay deals with etoposide-treated IMR-90 cells. Description: Etoposide-induced senescence model, resazurin cell viability (screen and dose-response). To be noted: etoposide-induced senescence model; ratio of IC50 values between etoposide- and DMSO-treated IMR-90 fibroblasts. The assay is classed as cell-based, human. In short, it runs like this:
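IMR-90 fibroblasts made senescent with 50 μM etoposide for 2 days, then 4 days recovery before plating. Compounds at 10 μM or 1 μM final (screen) or three-fold dilutions (1% DMSO) for 3 days, then 0.15 mM resazurin 1 day, fluorescence 550/590 nm. Viability expressed as fraction of untreated controls; biological duplicates.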
(In general: The colour change of resazurin is a common sign of viable cells or microbes.)
`O=C(CSc1nc2ccc(NC(=O)c3ccccc3)cc2s1)Nc1ccc(F)cc1` [compound 140]: the “Therapeutic Index (TI)” value is “++ (compounds with a TI of 1 to 5 were labelled as ++)”.
With `Cc1ccc(C(=O)Nc2ccc3nc(SCC(=O)Nc4ccccc4F)sc3c2)cc1` [compound 56] the entry was “++ (compounds with a TI of 1 to 5 were labelled as ++)”; with `COc1ccc(NC(=O)CSc2nc3ccc(NC(=O)c4ccccc4)cc3s2)cc1` [compound 57], “++ (compounds with a TI of 1 to 5 were labelled as ++)”.
Take `COc1ccccc1NC(=O)CSc1nc2ccc(NC(=O)c3ccccc3OC)cc2s1` [compound 28]: the “Therapeutic Index (TI)” value is reported as “+++ (compounds with a TI of >5 were labeled as +++)”.
Turning to `COc1ccc(NC(=O)CSc2nc3ccc(NC(=O)c4ccc(C(C)(C)C)cc4)cc3s2)cc1` [compound 117], the “Therapeutic Index (TI)” value is “++ (compounds with a TI of 1 to 5 were labelled as ++)”.
Regarding `CN(C(=O)CSc1nc2ccc(NC(=O)c3ccccc3)cc2s1)c1ccccc1` [compound 146], the “Therapeutic Index (TI)” value is on record as “+ (Compounds with a TI of <1 were labelled as +)”.
Turning to `Cc1ccccc1C(=O)Nc1ccc2nc(SCC(=O)Nc3ccccc3F)sc2c1` [compound 29], the “Therapeutic Index (TI)” value is “++ (compounds with a TI of 1 to 5 were labelled as ++)”.
`CCCCOc1ccc(C(=O)Nc2ccc3nc(SCC(=O)Nc4ccccc4)sc3c2)cc1` [compound 76]: the “Therapeutic Index (TI)” value is “++ (compounds with a TI of 1 to 5 were labelled as ++)”.
With `Cc1cccc(C(=O)Nc2ccc3nc(SCC(=O)Nc4ccccc4C)sc3c2)c1` [compound 7] the entry was “+++ (compounds with a TI of >5 were labeled as +++)”.
On to `CCC(Sc1nc2ccc(NC(=O)c3ccc(C)cc3)cc2s1)C(=O)Nc1ccc(Cl)cc1` (stereo not drawn) [compound 65], for which the “Therapeutic Index (TI)” value is listed as “++ (compounds with a TI of 1 to 5 were labelled as ++)”.
Turning to `Cc1ccccc1C(=O)Nc1ccc2nc(SCC(N)=O)sc2c1` [compound 75], the “Therapeutic Index (TI)” value is given as “++ (compounds with a TI of 1 to 5 were labelled as ++)”.
Next, `CCCCOc1ccc(C(=O)Nc2ccc3nc(SCC(=O)Nc4ccc(C(C)C)cc4)sc3c2)cc1` [compound 82]: “++ (compounds with a TI of 1 to 5 were labelled as ++)”; `Cc1ccccc1C(=O)Nc1ccc2nc(SCC(=O)Nc3ccc([N+](=O)[O-])cc3)sc2c1` [compound 73]: “++ (compounds with a TI of 1 to 5 were labelled as ++)”; `Cc1ccc(NC(=O)C(C)Sc2nc3ccc(NC(=O)c4ccc(Cl)cc4)cc3s2)cc1` (stereo not drawn) [compound 90]: “++ (compounds with a TI of 1 to 5 were labelled as ++)”.
As to `O=C(CSc1nc2ccc(NC(=O)c3ccccc3Cl)cc2s1)Nc1ccccc1` [compound 96], the “Therapeutic Index (TI)” value is on record as “++ (compounds with a TI of 1 to 5 were labelled as ++)”.
On to `CCCCOc1ccc(NC(=O)CSc2nc3ccc(NC(=O)c4ccccc4Br)cc3s2)cc1` [compound 50], for which the “Therapeutic Index (TI)” value was “++ (compounds with a TI of 1 to 5 were labelled as ++)”.
As for `CCCCOc1ccc(NC(=O)CSc2nc3ccc(NC(=O)c4ccc(OCCCC)cc4)cc3s2)cc1` [compound 86], the “Therapeutic Index (TI)” value is reported as “++ (compounds with a TI of 1 to 5 were labelled as ++)”.
Next, `COc1ccc(CNC(=O)CSc2nc3ccc(NC(=O)c4ccccc4C)cc3s2)cc1` [compound 161]: “+ (Compounds with a TI of <1 were labelled as +)”.
For the compound `Cc1cc(C)cc(NC(=O)CSc2nc3ccc(NC(=O)c4ccccc4C)cc3s2)c1` [compound 118], the “Therapeutic Index (TI)” value is “++ (compounds with a TI of 1 to 5 were labelled as ++)”.
Next, `Cc1ccc(NC(=O)CSc2nc3ccc(NC(=O)c4ccc(C)cc4)cc3s2)cc1` [compound 145]: “+ (Compounds with a TI of <1 were labelled as +)”.
For `CCOc1ccc(C(=O)Nc2ccc3nc(SCC(=O)Nc4ccc(C)cc4C)sc3c2)cc1` [compound 47], the “Therapeutic Index (TI)” value is “++ (compounds with a TI of 1 to 5 were labelled as ++)”.
For `CC(=O)c1ccc(NC(=O)CSc2nc3ccc(NC(=O)c4ccccc4)cc3s2)cc1` [compound 157], the “Therapeutic Index (TI)” value is given as “+ (Compounds with a TI of <1 were labelled as +)”.
In the case of `COc1ccc(NC(=O)CSc2nc3ccc(NC(=O)c4cccc(Cl)c4)cc3s2)cc1` [compound 79], the “Therapeutic Index (TI)” value was “++ (compounds with a TI of 1 to 5 were labelled as ++)”.
Next, `Cc1ccc(Cl)cc1NC(=O)CSc1nc2ccc(NC(=O)c3ccccc3C)cc2s1` [compound 46]: “++ (compounds with a TI of 1 to 5 were labelled as ++)”; `CC(=O)c1ccc(NC(=O)CSc2nc3ccc(NC(=O)c4ccccc4C)cc3s2)cc1` [compound 164]: “+ (Compounds with a TI of <1 were labelled as +)”; `CCOc1ccc(C(=O)Nc2ccc3nc(SCC(=O)Nc4ccc(F)cc4)sc3c2)cc1` [compound 120]: “++ (compounds with a TI of 1 to 5 were labelled as ++)”.
With `Cc1cccc(C(=O)Nc2ccc3nc(SCC(=O)Nc4ccccc4)sc3c2)c1` [compound 106] the entry was “++ (compounds with a TI of 1 to 5 were labelled as ++)”; with `O=C(CSc1nc2ccc(NC(=O)c3ccc(Cl)cc3Cl)cc2s1)Nc1ccccc1` [compound 4], “+++ (compounds with a TI of >5 were labeled as +++)”; with `COc1ccc(NC(=O)CSc2nc3ccc(NC(=O)c4ccccc4C)cc3s2)cc1` [compound 52], “++ (compounds with a TI of 1 to 5 were labelled as ++)”.
Consider `Cc1ccc(NC(=O)CSc2nc3ccc(NC(=O)c4ccccc4)cc3s2)cc1Cl` [compound 37], for which the “Therapeutic Index (TI)” value was “++ (compounds with a TI of 1 to 5 were labelled as ++)”.
With `COc1ccccc1NC(=O)CSc1nc2ccc(NC(=O)c3ccccc3)cc2s1` [compound 167] the entry was “+ (Compounds with a TI of <1 were labelled as +)”; with `COc1ccc(NC(=O)CSc2nc3ccc(NC(=O)c4ccc(OC)cc4)cc3s2)cc1` [compound 85], “++ (compounds with a TI of 1 to 5 were labelled as ++)”.
Next, `Cc1ccccc1C(=O)Nc1ccc2nc(SCC(=O)Nc3ccc(C(C)C)cc3)sc2c1` [compound 151]: “+ (Compounds with a TI of <1 were labelled as +)”.
With `O=C(CSc1nc2ccc(NC(=O)c3cccc4ccccc34)cc2s1)Nc1ccccc1F` [compound 92], the “Therapeutic Index (TI)” value was “++ (compounds with a TI of 1 to 5 were labelled as ++)”.
Regarding `O=C(CSc1nc2ccc(NC(=O)c3ccccc3)cc2s1)NC[C@H]1CCCO1` [compound 8], the “Therapeutic Index (TI)” value is listed as “+++ (compounds with a TI of >5 were labeled as +++)”.
Turning to `CC(=O)c1ccc(NC(=O)CSc2nc3ccc(NC(=O)c4ccc(Cl)cc4)cc3s2)cc1` [compound 114], the “Therapeutic Index (TI)” value was “++ (compounds with a TI of 1 to 5 were labelled as ++)”.
With `O=C(CSc1nc2ccc(NC(=O)c3ccc(F)cc3)cc2s1)Nc1ccccc1` [compound 122], the “Therapeutic Index (TI)” value was “++ (compounds with a TI of 1 to 5 were labelled as ++)”.
Next, `COc1cccc(C(=O)Nc2ccc3nc(SCC(=O)Nc4ccc(C)cc4)sc3c2)c1` [compound 13]: “+++ (compounds with a TI of >5 were labeled as +++)”; `COc1ccc(OC)c(NC(=O)CSc2nc3ccc(NC(=O)c4ccccc4C)cc3s2)c1` [compound 16]: “+++ (compounds with a TI of >5 were labeled as +++)”.
